From patent US7223583B2, “Antithrombotic thrombin variants” (Emory University, priority 2001, dated 2007)
Residues, ends and D or L forms follow the SMILES beside them. *: point of attachment. pNA = O=[N+]([O-])c1ccc(N*)cc1

Key:
Type in all cases: biochemical
[1] = molecular target: T1, human thrombin, variant E217A (Homo sapiens, UniProt P00734, E592A); assay: Hydrolysis of chromogenic substrate (progress curves of the release of p-nitroaniline at 405 nm), Example 4; conditions: E217A; 5 mM Tris, 0.1% PEG, 145 mM NaCl, pH 7.4, 37° C.
T1 construct: the B chain of thrombin commences with I1 and extends to E259
Protocol: (§1) All assays were carried out under experimental conditions of 5 mM Tris, 0.1% PEG, 145 mM NaCl, pH 7.4 at 37° C. The chromogenic substrates H-D-Phe-Pro-Arg-p-nitroanilide specific for thrombin and H-D-Asp-Arg-Arg-p-nitroanilide specific for activated protein C were purchased from Midwest Bio-Tech (Carmel, Ind.). The values of kcat/Km and kcat were obtained from the analysis of progress curves of the release of p-nitroaniline (measured at 405 nm) as a function of substrate concentration taking into account product inhibition, when present. The interaction of thrombin with fibrinogen and fibrin was studied in terms of the release of fibrinopeptides A and B as described by Vindigni & Di Cera. Biochemistry 35: 4417-4426 (1996) incorporated herein by reference in its entirety. The interaction of thrombin with PAR-1 was studied from the kinetics of cleavage of a soluble fragment corresponding to the extracellular portion of the receptor, as detailed in Arosio et al. Biochemistry 39: 8095-8101 (2000) incorporated herein by reference in its entirety. The inhibition of thrombin by antithrombin III in the presence of heparin, and the activation of protein C in the presence or absence of rabbit thrombomodulin were carried out and analyzed as described in Dang et al. Nat. Biotechnol. 15: 146-149 (1997).

[2] = tested on: human thrombin, variant E217A; assay: as above; conditions: E217A thrombin mutant (Gibbs et al.)
Protocol: as §1

[3] = molecular target: T2, human thrombin, wild-type (WT) (Homo sapiens, UniProt P00734); assay: Hydrolysis of chromogenic substrates (release of p-NA at 405 nm), Example 3; conditions: 5 mM Tris, 0.1% PEG, 200 mM NaCl, pH 8.0, 25° C.
T2 construct: the B chain of thrombin commences with I1 and extends to E259; made in house
Protocol: Citrated plasma was diluted 1:1 with isotonic saline, and the thrombin analogs were diluted with 0.1 M NaCl, 0.01 M CaCl2, 0.02 M Tris, pH 7.3 prior to testing. 100 μl of thrombin analog was then added to 200 μl of baboon plasma and the clotting time was determined using a fibrometer.
(§2) The chromogenic substrates FPR and LDPR were synthesized by solid phase, purified by HPLC and analyzed by mass spectrometry. Progress curves of the release of p-NA following the hydrolysis of chromogenic substrate were measured at 405 nm as a function of substrate concentration and analyzed to extract the values of kcat/Km and kcat, after proper correction for product inhibition. […] Biotechnol.

[4] = molecular target: T3, human thrombin, variant W215A, SEQ ID NO: 1 (Homo sapiens, UniProt P00734, W590A); assay: as above; conditions: 5 mM Tris, 0.1% PEG, 200 mM NaCl, pH 8.0, 25° C.
T3 construct: The B chain commences with I1 and extends to E259; made in house; host or cells: baby hamster kidney cells
Protocol: Site-directed mutagenesis of human α-thrombin was carried out in a HPC4-pNUT expression vector as described in Arosio et al. Biochemistry 39: 8095-8101 (2000) and incorporated herein by reference in its entirety, using overlap extension PCR with two mutant oligonucleotides: upstream: 5-GGGCATCGTCTCAXXXGGTGAAGGCTG TG-3(SEQ ID NO: 7); downstream: 5-CACAGCCTTCACCXXXTGAGACGATGCCC-3 (SEQ ID NO: 8) and two flanking oligonucleotide primers, BgIII (upstream): 5-[…]-3 (SEQ ID NO: 9 and; EcoRI (downstream): 5-[…]-3 (SEQ ID NO: 10). For the generation of the double mutant variant W215A/E217A (WE) thrombin, the forward primer 5′-[…]-3′ (SEQ ID NO: 11) and the reverse primer 5′-[…]-3′ (SEQ ID NO: 12) were used. Expression of the variant thrombins was carried out in baby hamster kidney cells as described in Guinto et al. Proc. Natl. Acad. Sci. U.S.A. 96: 1852-1857 (1999) incorporated herein by reference in its entirety. The enzyme was activated with the prothrombinase complex for about 30 mins. at 37° C. and then purified to homogeneity by monoS FPLC using a linear gradient of 0.05 to 0.5 M NaCl in 5 mM MES (pH 6) at room temperature. Mutants were further checked for incomplete refolding or autolytic digestion by N-terminal amino acid sequencing. Electrospray mass spectrometry yielded molecular weights consistent with the mutations introduced and indicated identical glycosylation in wild-type and mutant constructs.
as §2, with “All assays were carried out under experimental conditions of 5 mM Tris, 0.1% PEG, 145 mM NaCl, pH 7.4 at 37° C., unless otherwise specified. The” for “The”, “Biotechnol. 15: 146-149 (1997) and incorporated herein by reference in its entirety.” for “Biotechnol.”

[5] = molecular target: T2, human thrombin, wild-type (WT); assay: Hydrolysis of chromogenic substrate (progress curves of the release of p-nitroaniline at 405 nm), Example 4; conditions: 5 mM Tris, 0.1% PEG, 145 mM NaCl, pH 7.4, 37° C.
Source text: WT, W215A and WE variant thrombins were expressed, purified, and characterized in detail as described by Cantwell & Di Cera. J. Biol. Chem. 275: 39827-39830 (2000), incorporated herein by reference in its entirety. WE was stored in aliquots frozen until used in the thrombosis or coagulation experiments. To confirm that injection of variant thrombin WE would be at least as safe as injection of WT in baboons, the procoagulant activities of the two thrombins were compared in baboon plasma prepared by pooling citrated plasma samples from five animals. Citrated plasma was diluted 1:1 with isotonic saline, and the thrombin analogs were diluted with 0.1 M NaCl, 0.01 M CaCl2, 0.02 M Tris, pH 7.3 prior to testing. 100 μl of thrombin analog was then added to 200 μl of baboon plasma and the clotting time was determined using a fibrometer. […]
(§3) All assays were carried out under experimental conditions of 5 mM Tris, 0.1% PEG, 145 mM NaCl, pH 7.4 at 37° C. […] The values of kcat/Km and kcat were obtained from the analysis of progress curves of the release of p-nitroaniline (measured at 405 nm) as a function of substrate concentration taking into account product inhibition, when present. […] The inhibition of thrombin by antithrombin III in the presence of heparin, and the activation of protein C in the presence or absence of rabbit thrombomodulin were carried out and analyzed as described in Dang et al. Nat. […]

[6] = molecular target: T4, human thrombin, variant W215A/E217A (WE), SEQ ID NO: 3 (Homo sapiens, UniProt P00734, E592A/W590A); assay: as above; conditions: W215A/E217A (WE); 5 mM Tris, 0.1% PEG, 145 mM NaCl, pH 7.4, 37° C.
T4 construct: The B chain commences with I1 and extends to E259; made in house; host or cells: baby hamster kidney cells
Protocol: (§4) Site-directed mutagenesis of human α-thrombin was carried out in a HPC4-pNUT expression vector as described in Arosio et al. Biochemistry 39: 8095-8101 (2000) and incorporated herein by reference in its entirety, using overlap extension PCR with two mutant oligonucleotides: upstream: 5-GGGCATCGTCTCAXXXGGTGAAGGCTG TG-3(SEQ ID NO: 7); downstream: 5-CACAGCCTTCACCXXXTGAGACGATGCCC-3 (SEQ ID NO: 8) and two flanking oligonucleotide primers, BgIII (upstream): 5-[…]-3 (SEQ ID NO: 9 and; EcoRI (downstream): 5-[…]-3 (SEQ ID NO: 10). For the generation of the double mutant variant W215A/E217A (WE) thrombin, the forward primer 5′-[…]-3′ (SEQ ID NO: 11) and the reverse primer 5′-[…]-3′ (SEQ ID NO: 12) were used. […]
as §3

[7] = tested on: human thrombin, variant W215A/E217A (WE), SEQ ID NO: 3; assay: as above; conditions: W215A/E217A (WE) thrombin double mutant
Protocol: as §4, §3

[8] = kcat could not be estimated due to the very high Km

kcat/Km (H-D-Phe-Pro-Arg-p-nitroanilide) [1] [M⁻¹ s⁻¹]	drop of kcat/Km for the hydrolysis of H-D-Phe-Pro-Arg-p-nitroanilide [2]	kcat (FPR) [3] [s⁻¹]	kcat/Km (FPR) [3] [M⁻¹ s⁻¹]	kcat (FPR) [4] [s⁻¹]	kcat/Km (FPR) [4] [M⁻¹ s⁻¹]	kcat/Km (H-D-Phe-Pro-Arg-p-nitroanilide) [5] [M⁻¹ s⁻¹]	kcat/Km (H-D-Phe-Pro-Arg-p-nitroanilide) [6] [M⁻¹ s⁻¹]	Compound	cleavage of H-D-Phe-Pro-Arg-p-nitroanilide compromised [7]	kcat/Km (LDPR) [3, 8] [M⁻¹ s⁻¹]	kcat/Km (LDPR) [4, 8] [M⁻¹ s⁻¹]
3.8e+06 ± 300000	over 25 fold	56 ± 3	8.8e+07 ± 4e+06	43 ± 2	910000 ± 10000	9.7e+07 ± 5e+06	2800 ± 100	NC(N)=NCCC[C@H](NC(=O)[C@@H]1CCCN1C(=O)[C@H](N)Cc1ccccc1)C(=O)Nc1ccc([N+](=O)[O-])cc1 [FPR, H-D-Phe-Pro-Arg-p-nitroanilide]	over 30,000 fold	–	–
–	–	–	–	–	–	–	–	CC(C)C[C@H](N)C(=O)N[C@@H](CC(=O)O)C(=O)N1CCC[C@H]1C(=O)N[C@@H](CCCN=C(N)N)C(=O)Nc1ccc([N+](=O)[O-])cc1 [LDPR, H-L-Leu-Asp-Pro-Arg-p-nitroanilide] (H-LDPR-pNA)	–	4.7e+06 ± 900000	25000 ± 1000
